Experiment: xn = mol fraction of the nth substance listed

ClC(Cl)Cl + CN(C)C=O
viscosity [mPa·s], 101 kPa
Conditions | 293.15 K | 303.15 K | 313.15 K | 323.15 K
x2 = 0.0512 | 0.7325 | 0.6616 | 0.6031 | –
x2 = 0.1011 | 0.7913 | 0.7089 | 0.636 | 0.5823
x2 = 0.1954 | 0.9132 | 0.8102 | – | 0.6447
x2 = 0.1955 | – | – | 0.7206 | –
x2 = 0.2975 | 1.025 | 0.901 | 0.7977 | 0.7077
x2 = 0.392 | 1.095 | 0.9598 | 0.8479 | 0.7408
x2 = 0.5008 | 1.128 | 0.9894 | 0.8735 | 0.7803
x2 = 0.5983 | 1.123 | 0.9851 | 0.8753 | 0.7856
x2 = 0.6918 | 1.091 | 0.9617 | 0.8556 | 0.7692
x2 = 0.7851 | 1.051 | 0.9294 | 0.8306 | 0.7493
x2 = 0.8951 | 0.9944 | – | 0.7921 | 0.7179
x2 = 0.8952 | – | 0.8835 | – | –

ClC(Cl)Cl + CO
viscosity [mPa·s]
Conditions | 101 kPa | 101.3 kPa
303 K, x1 = 0.096 | – | 0.5644
303 K, x1 = 0.1963 | – | 0.6289
303 K, x1 = 0.2971 | – | 0.6315
303 K, x1 = 0.4963 | – | 0.5872
303 K, x1 = 0.6952 | – | 0.5447
303 K, x1 = 0.9092 | – | 0.5211
303.15 K, x1 = 0.0499 | 0.59 | –
303.15 K, x1 = 0.1326 | 0.642 | –
303.15 K, x1 = 0.3228 | 0.653 | –
303.15 K, x1 = 0.4234 | 0.634 | –
303.15 K, x1 = 0.5123 | 0.621 | –
303.15 K, x1 = 0.6981 | 0.608 | –
303.15 K, x1 = 0.8262 | 0.61 | –
303.15 K, x2 = 0.0625 | 0.509 | 0.509
303.15 K, x2 = 0.0947 | 0.5084 | 0.5084
303.15 K, x2 = 0.1406 | 0.5099 | 0.5099
303.15 K, x2 = 0.183 | 0.5138 | 0.5138
303.15 K, x2 = 0.2165 | 0.5168 | 0.5168
303.15 K, x2 = 0.3004 | 0.5296 | 0.5296
303.15 K, x2 = 0.3311 | 0.5343 | 0.5343
303.15 K, x2 = 0.3671 | 0.5424 | 0.5424
303.15 K, x2 = 0.3854 | 0.546 | 0.546
303.15 K, x2 = 0.4503 | 0.5601 | 0.5601
303.15 K, x2 = 0.5306 | 0.5764 | 0.5764
303.15 K, x2 = 0.615 | 0.5904 | 0.5904
303.15 K, x2 = 0.7056 | 0.5975 | 0.5975
303.15 K, x2 = 0.743 | 0.5962 | 0.5962
303.15 K, x2 = 0.8147 | 0.5864 | 0.5864
303.15 K, x2 = 0.8944 | 0.5613 | 0.5613
303.15 K, x2 = 0.9355 | 0.5417 | 0.5417
303.15 K, x2 = 0.961 | 0.5281 | 0.5281
311 K, x1 = 0.096 | – | 0.5043
311 K, x1 = 0.1963 | – | 0.5549
311 K, x1 = 0.2971 | – | 0.5593
311 K, x1 = 0.4963 | – | 0.5271
311 K, x1 = 0.6952 | – | 0.4971
311 K, x1 = 0.9092 | – | 0.4822
313.15 K, x1 = 0.0499 | 0.527 | –
313.15 K, x1 = 0.1326 | 0.557 | –
313.15 K, x1 = 0.3228 | 0.566 | –
313.15 K, x1 = 0.4234 | 0.554 | –
313.15 K, x1 = 0.5123 | 0.549 | –
313.15 K, x1 = 0.6981 | 0.545 | –
313.15 K, x1 = 0.8262 | 0.55 | –
319 K, x1 = 0.096 | – | 0.4586
319 K, x1 = 0.1963 | – | 0.4932
319 K, x1 = 0.2971 | – | 0.5022
319 K, x1 = 0.4963 | – | 0.4779
319 K, x1 = 0.6952 | – | 0.4574
319 K, x1 = 0.9092 | – | 0.4489
323.15 K, x1 = 0.0499 | 0.439 | –
323.15 K, x1 = 0.1326 | 0.448 | –
323.15 K, x1 = 0.3228 | 0.451 | –
323.15 K, x1 = 0.4234 | 0.468 | –
323.15 K, x1 = 0.5123 | 0.474 | –
323.15 K, x1 = 0.6981 | 0.482 | –
323.15 K, x1 = 0.8262 | 0.496 | –

O=CC(Cl)(Cl)Cl + CO
313.15 K, 101 kPa
Conditions | viscosity [mPa·s]
x1 = 0.0365 | 0.5111
x1 = 0.1162 | 0.9078
x1 = 0.2408 | 2.096
x1 = 0.3032 | 2.491
x1 = 0.4207 | 6.085
x1 = 0.444 | 6.591
x1 = 0.4731 | 7.389
x1 = 0.5032 | 7.028
x1 = 0.5958 | 3.182
x1 = 0.7159 | 1.792
x1 = 0.8416 | 1.198
x1 = 0.9603 | 0.8738

ClC(Cl)Cl + COC(=O)OC
viscosity [mPa·s], 101.33 kPa
Conditions | x2 = 0.0987 | x2 = 0.2134 | x2 = 0.3031 | x2 = 0.4027 | x2 = 0.5031 | x2 = 0.6187 | x2 = 0.7021 | x2 = 0.7996 | x2 = 0.9013
298.15 K | 0.528 | 0.553 | 0.566 | 0.57 | 0.565 | 0.559 | 0.546 | 0.545 | 0.541
303.15 K | 0.501 | 0.525 | 0.53 | 0.536 | 0.531 | 0.523 | 0.514 | 0.513 | 0.509
308.15 K | 0.475 | 0.494 | 0.504 | 0.507 | 0.502 | 0.493 | 0.484 | 0.48 | 0.48

CCOCCOCC + COCCO
viscosity [mPa·s], 101.33 kPa
Conditions | 298.15 K | 308.15 K
x1 = 0.0157 | 1.497 | 1.223
x2 = 0.0142 | 0.608 | 0.529
x2 = 0.0354 | 0.617 | 0.539
x2 = 0.0658 | 0.631 | 0.549
x2 = 0.0821 | 0.639 | 0.553
x2 = 0.1085 | 0.647 | 0.561
x2 = 0.1503 | 0.663 | 0.578
x2 = 0.2016 | 0.685 | 0.592
x2 = 0.28 | 0.723 | 0.62
x2 = 0.3202 | 0.742 | 0.639
x2 = 0.3604 | 0.767 | 0.655
x2 = 0.4322 | 0.812 | 0.691
x2 = 0.4797 | 0.847 | 0.718
x2 = 0.5152 | 0.875 | 0.739
x2 = 0.5455 | 0.901 | 0.758
x2 = 0.5957 | 0.946 | 0.792
x2 = 0.6464 | 0.996 | 0.832
x2 = 0.7119 | 1.066 | 0.883
x2 = 0.7472 | 1.105 | 0.918
x2 = 0.8023 | 1.18 | 0.969
x2 = 0.8705 | 1.275 | 1.054
x2 = 0.9222 | 1.366 | 1.119
x2 = 0.9592 | 1.425 | 1.167

CCOCCOCC + COCCOCCO
viscosity [mPa·s], 101.33 kPa
Conditions | 298.15 K | 308.15 K
x1 = 0.0146 | 3.47 | 2.55
x2 = 0.0162 | 0.621 | 0.538
x2 = 0.0416 | 0.646 | 0.559
x2 = 0.0613 | 0.664 | 0.574
x2 = 0.0967 | 0.703 | 0.6
x2 = 0.1691 | 0.779 | 0.666
x2 = 0.2291 | 0.85 | 0.718
x2 = 0.2741 | 0.916 | 0.765
x2 = 0.3082 | 0.964 | 0.809
x2 = 0.344 | 1.014 | 0.849
x2 = 0.4006 | 1.115 | 0.929
x2 = 0.4593 | 1.232 | 1.017
x2 = 0.5082 | 1.346 | 1.097
x2 = 0.5635 | 1.492 | 1.203
x2 = 0.6145 | 1.65 | 1.306
x2 = 0.6552 | 1.793 | 1.423
x2 = 0.6969 | 1.949 | 1.503
x2 = 0.7526 | 2.186 | 1.654
x2 = 0.8075 | 2.441 | 1.823
x2 = 0.8567 | 2.699 | 1.995
x2 = 0.9074 | 2.985 | 2.19
x2 = 0.9515 | 3.253 | 2.386

CCOCCOCC + COCCOCCOCCO
viscosity [mPa·s], 101.33 kPa
Conditions | 298.15 K | 308.15 K
x2 = 0.0126 | 0.622 | 0.539
x2 = 0.0328 | 0.652 | 0.561
x2 = 0.052 | 0.688 | 0.586
x2 = 0.0807 | 0.73 | 0.617
x2 = 0.1339 | 0.824 | 0.691
x2 = 0.1806 | 0.917 | 0.765
x2 = 0.2394 | 1.047 | 0.872
x2 = 0.2918 | 1.18 | 0.978
x2 = 0.342 | 1.332 | 1.097
x2 = 0.385 | 1.473 | 1.198
x2 = 0.4103 | 1.588 | 1.262
x2 = 0.4604 | 1.801 | 1.417
x2 = 0.5091 | 2.04 | 1.573
x2 = 0.5505 | 2.273 | 1.725
x2 = 0.5978 | 2.561 | 1.923
x2 = 0.6522 | 2.935 | 2.167
x2 = 0.7117 | 3.396 | 2.476
x2 = 0.7976 | 4.169 | 2.989
x2 = 0.8577 | 4.791 | 3.415
x2 = 0.9256 | 5.588 | 3.957
x2 = 0.9633 | 6.103 | 4.311

ClC(Cl)Cl + CS(C)=O
viscosity [mPa·s], 101.33 kPa
Conditions | x2 = 0.0955 | x2 = 0.2039 | x2 = 0.3021 | x2 = 0.4068 | x2 = 0.5023 | x2 = 0.6044 | x2 = 0.7038 | x2 = 0.8047 | x2 = 0.9014
298.15 K | 0.642 | 0.839 | 1.018 | 1.227 | 1.365 | 1.498 | 1.611 | 1.729 | 1.842
308.15 K | 0.576 | 0.738 | 0.882 | 1.057 | 1.171 | 1.276 | 1.366 | 1.458 | 1.545
318.15 K | 0.527 | 0.682 | 0.8 | 0.915 | 1.011 | 1.097 | 1.171 | 1.246 | 1.309

O=CC(Cl)(Cl)Cl + C[N+](=O)[O-]
viscosity [mPa·s], 101.33 kPa
Conditions | x1 = 0.1002 | x1 = 0.2003 | x1 = 0.2963 | x1 = 0.4004 | x1 = 0.4966 | x1 = 0.5833 | x1 = 0.6948 | x1 = 0.8007 | x1 = 0.8965
298.15 K | 0.661 | 0.7023 | 0.7591 | 0.8043 | 0.8435 | 0.8874 | 0.9389 | 0.9876 | 1.028
323.15 K | 0.5186 | 0.5507 | 0.5793 | 0.6238 | 0.6316 | 0.6661 | 0.6895 | 0.7155 | 0.7491

O=C(O)CCl + C[N+](C)(C)CCO.[Cl-]
101 kPa, x2 = 0.333
Conditions | viscosity [mPa·s]
293.15 K | 161
298.15 K | 117.9
303.15 K | 88.59
308.15 K | 68.11
313.15 K | 53.44
318.15 K | 42.65
323.15 K | 34.65

ClC(Cl)Cl + Cc1ccc(C)cc1
298.15 K, 101 kPa
Conditions | viscosity [mPa·s]
x1 = 0.4429 | 0.6167
x1 = 0.5074 | 0.6102
x1 = 0.5571 | 0.6084
x1 = 0.5997 | 0.6031
x1 = 0.6505 | 0.6003
x1 = 0.6897 | 0.5954
x1 = 0.7351 | 0.5903

Reference: the CheMixHub viscosity set
